Like-named read-outs stand apart in the source and are kept apart here.
Key:
Zucker Fatty (ZF) rats = assay: Oral carbohydrate loading test of Zucker Fatty rats: compound 3, voglibose and combination (plasma glucose and insulin); assay type: in vivo, rat
Source text: Four groups each containing 5 rats were formed. […] [table]

`Cc1cc(N2CCN([C@@H]3CN[C@H](C(=O)N4CCSC4)C3)CC2)n(-c2ccccc2)n1` [compound 3, 3-{(2S,4S)-4-[4-(3-methyl-1-phenyl-1H-pyrazol-5-yl)piperazin-1-yl]pyrrolidin-2-ylcarbonyl}thiazolidine] was tested, and the “suppression of increase in plasma glucose after oral carbohydrate loading, as compared to the vehicle group” value (from here on “suppression of increase”) (ZF rats; rat, in vivo) was 33%, the “suppression of increase” value (Zucker Fatty (ZF) rats; rat, in vivo) was 33% and the “increase of plasma insulin concentration as compared to the vehicle group” value (Zucker Fatty (ZF) rats; rat, in vivo, po, 0.1 mg/kg) was “about 3 fold”.
`CN(C)C(=N)N=C(N)N` [metformin, reference compound] was tested, and the “suppression of increase” value (ZF rats; male ZF rats, overnight fasted, compound 3 0.3 mg/kg and/or metformin 50 mg/kg given 15 min before mixed carbohydrates 3.5 g/kg orally, area value over 120 min) was 13%.
`OCC(CO)N[C@H]1C[C@](O)(CO)[C@@H](O)[C@H](O)[C@H]1O` [voglibose, reference compound] was tested, and the “suppression of increase” value (Zucker Fatty (ZF) rats; male ZF rats, overnight fasted, compound 3 0.1 mg/kg and/or voglibose 0.1 mg/kg given 15 min before mixed carbohydrates 3.5 g/kg orally, area value over 60 min) was 34%.

Source: US8754032B2, “Concomitant pharmaceutical agents and use thereof” (Mitsubishi Tanabe Pharma Corporation, priority 2005, dated 2014)
